Assay results published in US4559323A, “A41030 Antibiotics” (Eli Lilly and Company, priority 1984, dated 1985).
Read-outs that look alike come from different tables or passages of the source.

How the values were obtained:
[1] = test system: Salmonella typhi; assay: Agar-dilution MIC; type: cell-based; conditions: Table 17, 24 hours
[2] = Electrometric titration (pKa); type: physicochemical; conditions: electrometric titration in 66% dimethylformamide in water
[3] = test system: Eubacterium aerofaciens; assay: Agar-dilution MIC (anaerobes); type: cell-based; conditions: Table 14; Eubacterium aerofaciens 1235
[4] = test system: Propionibacterium acnes; assay: Agar-dilution MIC (anaerobes); type: cell-based; conditions: Table 14; Propionibacterium acnes 79
Excerpt: Antibiotic A41030 factors A, B and C have also been tested and found to be active against a genus of anaerobic bacteria identified as Propionibacterium acnes.

[5] = test system: Hemophilus influenzae; assay: Agar-dilution MIC; type: cell-based; conditions: Table 17, 24 hours
[6] = test system: Clostridium perfringens; type: cell-based; conditions: Table 14; Clostridium perfringens 81
[7] = test system: Peptococcus asaccharolyticus; assay: Agar-dilution MIC (anaerobes); type: cell-based; conditions: Table 14; Peptococcus asaccharolyticus 1302
[8] = test system: Clostridium difficile; type: cell-based; conditions: Table 16
Excerpt: The A41030 antibiotic factors A, B, C, D, E, F, and G, are also active against a number of strains of Clostridium difficile, as determined by the agar-dilution method.

[9] = test system: Clostridium septicum; assay: Agar-dilution MIC (anaerobes); type: cell-based; conditions: Table 14; Clostridium septicum 1128
[10] = test system: Clostridium difficile; type: cell-based; conditions: Table 14; Clostridium difficile 2994
[11] = test system: B. thetaiotaomicron; type: cell-based; conditions: Table 14; Bacteroides thetalotaomicron 1438
Excerpt: (§1) The agar-dilution procedure described by the International Collaborative study (ICS) group was used to determine the minimum inhibitory concentrations (MIC's).

[12] = test system: Bacteroides corrodens; assay: Agar-dilution MIC (anaerobes); type: cell-based; conditions: Table 14; Bacteroides corrodens 1874
[13] = test system: Fusobacterium necrophorum; assay: Agar-dilution MIC (anaerobes); type: cell-based; conditions: Table 14; Fusobacterium necrophorum 6054A
[14] = test system: Streptococcus pyogenes; assay: Agar-dilution MIC; type: cell-based; conditions: Table 17; 24 hours; Streptococcus pyogenes C203
Excerpt: as §1

[15] = test system: Streptococcus pneumoniae; assay: Agar-dilution MIC; type: cell-based; conditions: Table 17; 24 hours; Streptococcus pneumoniae Park I
Excerpt: as §1

[16] = test system: Staphylococcus epidermidis; assay: Agar-dilution MIC; type: cell-based; conditions: Table 17, 24 hours
Excerpt: as §1

[17] = test system: Streptococcus sp. (Group D); assay: Agar-dilution MIC; type: cell-based; conditions: Table 17, 24 hours
Excerpt: as §1

[18] = test system: Bacteroides fragilis; assay: Agar-dilution MIC (anaerobes); type: cell-based; conditions: Table 14
Excerpt: as §1

[19] = test system: Peptostreptococcus anaerobius; assay: Agar-dilution MIC (anaerobes); type: cell-based; conditions: Table 14; Peptostreptococcus anaerobius 1428
[20] = Solubility in solvents; type: physicochemical; conditions: solvents as named
Excerpt: The seven antibiotic factors are recovered from the fermentation and are obtained as a mixture, the A41030 complex. It will be recognized that the ratio of the factors in the A41030 complex will vary, depending upon the fermentation conditions used. The individual factors […], and G are separated and isolated as individual compounds, as hereinafter described.

[21] = test system: Bacteroides melaninogenicus; assay: Agar-dilution MIC (anaerobes); type: cell-based; conditions: Table 14; Bacteroides melaninogenicus 2736
[22] = test system: Klebsiella pneumoniae; assay: Agar-dilution MIC; type: cell-based; conditions: Table 17; 24 hours; Klebsiella pneumoniae X26
[23] = test system: Fusobacterium symbiosum; assay: Agar-dilution MIC (anaerobes); type: cell-based; conditions: Table 14; Fusobacterium symbiosum 1470
[24] = test system: Peptostreptococcus intermedius; assay: Agar-dilution MIC (anaerobes); type: cell-based; conditions: Table 14; Peptostreptococcus intermedius 1264
[25] = test system: Peptococcus prevoti; assay: Agar-dilution MIC (anaerobes); type: cell-based; conditions: Table 14; Peptococcus prevoti 1281
[26] = test system: Bacteroides vulgatis; assay: Agar-dilution MIC (anaerobes); type: cell-based; conditions: Table 14; Bacteroides vulgatis 1211

**Q.** Which results are given for A41030 factor G?
**A.** MIC ([1]; Salmonella typhi 1335): > 128 µg/mL; MIC ([1]; Salmonella typhi X514): > 128 µg/mL; pKa, first titratable group [2]: about 5.4; pKa, second titratable group [2]: ~7.0; MIC [3]: 2 µg/mL; MIC [4]: 1.0 µg/mL; MIC ([5]; Haemophilus influenzae 76): 32 µg/mL; MIC ([5]; Haemophilus influenzae C.L.): 32 µg/mL; MIC [6]: 2 µg/mL; MIC [7]: 1.0 µg/mL; MIC ([8]; C. difficile 78): 1.0 µg/mL; MIC ([8]; C. difficile 107B): 1.0 µg/mL; MIC ([8]; C. difficile 111F): 1.0 µg/mL; MIC ([8]; C. difficile 1153): 1.0 µg/mL; MIC ([8]; C. difficile 2634): 1.0 µg/mL; MIC ([8]; C. difficile 3424-5B): 1.0 µg/mL; MIC ([8]; C. difficile 3816): 1.0 µg/mL; MIC ([8]; C. difficile 3950): 1.0 µg/mL; MIC ([8]; C. difficile 6890): 1.0 µg/mL; MIC ([8]; C. difficile 8484): 1.0 µg/mL; MIC ([8]; C. difficile A-194): 1.0 µg/mL; MIC ([8]; C. difficile A-195): 1.0 µg/mL; MIC ([8]; C. difficile A-196): 1.0 µg/mL; MIC ([8]; C. difficile A-279): 1.0 µg/mL; MIC ([8]; C. difficile A-280): 1.0 µg/mL; MIC ([8]; C. difficile A-281): 1.0 µg/mL; MIC ([8]; C. difficile WAL-2112): 1.0 µg/mL; MIC ([8]; C. difficile WAL-3657): 1.0 µg/mL; MIC ([8]; C. difficile WAL-4268): 1.0 µg/mL; MIC [9]: 2 µg/mL; MIC [10]: 2 µg/mL; MIC [11]: 64 µg/mL; MIC [12]: 32 µg/mL; MIC [13]: 2 µg/mL; MIC [14]: 2 µg/mL; MIC [15]: 2 µg/mL; MIC ([16]; Staphylococcus epidermidis EPI1): 0.5 µg/mL; MIC ([16]; Staphylococcus epidermidis EPI2): 0.5 µg/mL; MIC ([17]; Streptococcus sp. Group D 9960): 4 µg/mL; MIC ([17]; Streptococcus sp. Group D X66): 4 µg/mL; MIC ([18]; Bacteroides fragilis 111): 32 µg/mL; MIC ([18]; Bacteroides fragilis 1877): 32 µg/mL; MIC ([18]; Bacteroides fragilis 1936B): 64 µg/mL; MIC [19]: ≤ 0.5 µg/mL; Solubility [20]: soluble in the same solvents as is factor A; MIC [21]: 64 µg/mL; MIC [22]: 64 µg/mL; MIC [23]: 2 µg/mL; MIC [24]: 2 µg/mL; MIC [25]: 2 µg/mL; MIC [26]: 64 µg/mL
